Results on 7 compounds are retold here after paper PMC6199744, “Development of Chemical Proteomics for the Folateome and Analysis of the Kinetoplastid Folateome” (ACS Infectious Diseases, 2018).

What all share (type): binding
For experiment [1], the target named is T1, HeLa cell extract proteins (Homo sapiens, UniProt O00571).
T1 construct: endogenous in cells; host or cells: HeLa cell extract

The target in experiment [2] is T2, HeLa cell extract proteins (Homo sapiens, UniProt P07355).
T2 construct: endogenous in cells; host or cells: HeLa cell extract
T2 sequence (P07355 whole entry): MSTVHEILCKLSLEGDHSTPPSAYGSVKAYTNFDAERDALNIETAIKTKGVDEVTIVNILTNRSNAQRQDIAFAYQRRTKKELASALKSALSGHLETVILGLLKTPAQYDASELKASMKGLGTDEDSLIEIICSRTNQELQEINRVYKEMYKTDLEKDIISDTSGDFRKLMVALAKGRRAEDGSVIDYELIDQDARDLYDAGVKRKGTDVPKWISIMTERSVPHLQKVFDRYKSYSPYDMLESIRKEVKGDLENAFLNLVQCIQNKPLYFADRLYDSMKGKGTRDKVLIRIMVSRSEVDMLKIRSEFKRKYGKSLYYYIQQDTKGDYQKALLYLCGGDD

Experiment [3] deals with T3, HeLa cell extract proteins (Homo sapiens, UniProt P61981).
T3 construct: endogenous in cells; host or cells: HeLa cell extract
T3 sequence (P61981 1-247): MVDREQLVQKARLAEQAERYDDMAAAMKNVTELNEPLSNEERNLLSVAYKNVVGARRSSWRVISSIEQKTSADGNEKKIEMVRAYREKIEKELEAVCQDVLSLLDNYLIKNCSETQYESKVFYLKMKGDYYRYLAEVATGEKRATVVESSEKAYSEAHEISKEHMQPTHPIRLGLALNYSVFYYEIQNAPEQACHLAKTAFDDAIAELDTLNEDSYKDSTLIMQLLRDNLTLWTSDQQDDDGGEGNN

Experiment [4] deals with T4, HeLa cell extract proteins (Homo sapiens, UniProt Q9NQR4).
T4 construct: endogenous in cells; host or cells: HeLa cell extract
T4 sequence (Q9NQR4 1-276): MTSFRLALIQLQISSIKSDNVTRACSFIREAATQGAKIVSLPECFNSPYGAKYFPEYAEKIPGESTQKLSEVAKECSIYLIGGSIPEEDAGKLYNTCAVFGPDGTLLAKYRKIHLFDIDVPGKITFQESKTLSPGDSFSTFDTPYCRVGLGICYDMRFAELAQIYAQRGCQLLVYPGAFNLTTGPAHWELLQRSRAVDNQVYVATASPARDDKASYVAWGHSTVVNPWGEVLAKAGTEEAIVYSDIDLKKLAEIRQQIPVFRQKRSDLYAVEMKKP

Experiment [5] has as its target T5, HeLa cell extract proteins (Homo sapiens, UniProt Q9NVE7).
T5 construct: endogenous in cells; host or cells: HeLa cell extract
T5 sequence (Q9NVE7 1-773): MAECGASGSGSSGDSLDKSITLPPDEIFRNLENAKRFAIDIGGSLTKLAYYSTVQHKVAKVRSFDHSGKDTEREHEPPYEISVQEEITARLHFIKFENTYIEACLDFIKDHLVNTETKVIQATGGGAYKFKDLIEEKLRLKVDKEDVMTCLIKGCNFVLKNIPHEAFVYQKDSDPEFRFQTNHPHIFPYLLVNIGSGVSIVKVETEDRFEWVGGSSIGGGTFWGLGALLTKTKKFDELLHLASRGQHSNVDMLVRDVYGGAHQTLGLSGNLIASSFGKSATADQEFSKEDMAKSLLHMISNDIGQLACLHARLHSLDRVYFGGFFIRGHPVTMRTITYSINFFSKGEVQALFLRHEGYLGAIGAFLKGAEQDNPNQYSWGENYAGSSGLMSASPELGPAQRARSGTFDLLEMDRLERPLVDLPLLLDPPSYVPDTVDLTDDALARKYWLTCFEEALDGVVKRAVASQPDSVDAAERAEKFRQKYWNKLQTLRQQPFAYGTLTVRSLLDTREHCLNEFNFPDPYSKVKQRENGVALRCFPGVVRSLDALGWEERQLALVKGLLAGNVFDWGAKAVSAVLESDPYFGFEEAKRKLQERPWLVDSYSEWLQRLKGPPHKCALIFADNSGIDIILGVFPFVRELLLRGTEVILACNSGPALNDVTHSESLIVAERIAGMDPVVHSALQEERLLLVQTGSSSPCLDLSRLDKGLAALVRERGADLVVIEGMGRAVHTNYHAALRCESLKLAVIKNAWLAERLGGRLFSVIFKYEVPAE

The target in experiment [6] is T6, HeLa cell extract proteins (Homo sapiens, UniProt Q9UHI6).
T6 construct: endogenous in cells; host or cells: HeLa cell extract
T6 sequence (Q9UHI6 1-824): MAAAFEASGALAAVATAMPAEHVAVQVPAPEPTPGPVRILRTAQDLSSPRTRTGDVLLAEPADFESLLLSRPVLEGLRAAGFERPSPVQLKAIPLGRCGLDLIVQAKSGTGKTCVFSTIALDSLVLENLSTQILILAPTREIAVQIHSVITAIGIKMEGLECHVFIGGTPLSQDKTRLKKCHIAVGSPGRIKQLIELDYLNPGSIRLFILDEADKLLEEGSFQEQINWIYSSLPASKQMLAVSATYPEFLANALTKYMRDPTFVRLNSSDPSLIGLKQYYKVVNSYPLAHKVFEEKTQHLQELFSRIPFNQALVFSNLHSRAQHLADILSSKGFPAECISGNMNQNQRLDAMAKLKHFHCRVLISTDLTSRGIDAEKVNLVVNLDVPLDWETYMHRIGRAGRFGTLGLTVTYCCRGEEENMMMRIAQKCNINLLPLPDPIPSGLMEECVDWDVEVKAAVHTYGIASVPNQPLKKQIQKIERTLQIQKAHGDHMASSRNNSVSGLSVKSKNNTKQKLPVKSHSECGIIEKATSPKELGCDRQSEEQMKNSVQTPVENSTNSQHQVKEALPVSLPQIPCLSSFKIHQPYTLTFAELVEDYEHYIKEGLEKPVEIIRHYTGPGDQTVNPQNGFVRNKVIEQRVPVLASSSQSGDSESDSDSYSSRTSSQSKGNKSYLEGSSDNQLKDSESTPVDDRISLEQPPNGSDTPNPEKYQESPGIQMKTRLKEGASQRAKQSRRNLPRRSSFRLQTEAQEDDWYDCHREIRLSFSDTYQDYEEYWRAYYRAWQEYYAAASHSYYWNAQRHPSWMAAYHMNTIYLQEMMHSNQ

Experiment [7] addresses T7, HeLa cell extract proteins (Homo sapiens, UniProt Q9UPY5).
T7 construct: endogenous in cells; host or cells: HeLa cell extract
T7 sequence (Q9UPY5 1-501): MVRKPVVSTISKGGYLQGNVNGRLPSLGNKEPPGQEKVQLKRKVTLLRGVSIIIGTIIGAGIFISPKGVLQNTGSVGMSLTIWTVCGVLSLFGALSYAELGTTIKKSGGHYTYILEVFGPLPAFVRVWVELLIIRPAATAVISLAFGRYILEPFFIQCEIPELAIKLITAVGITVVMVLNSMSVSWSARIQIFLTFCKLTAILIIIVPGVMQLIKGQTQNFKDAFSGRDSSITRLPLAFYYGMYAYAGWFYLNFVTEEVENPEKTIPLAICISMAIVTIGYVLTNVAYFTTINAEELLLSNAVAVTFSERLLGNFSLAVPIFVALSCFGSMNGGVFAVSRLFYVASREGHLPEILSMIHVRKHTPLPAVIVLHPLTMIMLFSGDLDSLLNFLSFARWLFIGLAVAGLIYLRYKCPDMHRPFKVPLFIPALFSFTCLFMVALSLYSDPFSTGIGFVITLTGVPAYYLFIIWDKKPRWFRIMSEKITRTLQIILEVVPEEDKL

Setting [8] is: HeLa, protein YWHAG (14-3-3 PROTEIN GAMMA.).

Where two headings read alike, the source gives them in different places.

T1 sequence (O00571 whole entry): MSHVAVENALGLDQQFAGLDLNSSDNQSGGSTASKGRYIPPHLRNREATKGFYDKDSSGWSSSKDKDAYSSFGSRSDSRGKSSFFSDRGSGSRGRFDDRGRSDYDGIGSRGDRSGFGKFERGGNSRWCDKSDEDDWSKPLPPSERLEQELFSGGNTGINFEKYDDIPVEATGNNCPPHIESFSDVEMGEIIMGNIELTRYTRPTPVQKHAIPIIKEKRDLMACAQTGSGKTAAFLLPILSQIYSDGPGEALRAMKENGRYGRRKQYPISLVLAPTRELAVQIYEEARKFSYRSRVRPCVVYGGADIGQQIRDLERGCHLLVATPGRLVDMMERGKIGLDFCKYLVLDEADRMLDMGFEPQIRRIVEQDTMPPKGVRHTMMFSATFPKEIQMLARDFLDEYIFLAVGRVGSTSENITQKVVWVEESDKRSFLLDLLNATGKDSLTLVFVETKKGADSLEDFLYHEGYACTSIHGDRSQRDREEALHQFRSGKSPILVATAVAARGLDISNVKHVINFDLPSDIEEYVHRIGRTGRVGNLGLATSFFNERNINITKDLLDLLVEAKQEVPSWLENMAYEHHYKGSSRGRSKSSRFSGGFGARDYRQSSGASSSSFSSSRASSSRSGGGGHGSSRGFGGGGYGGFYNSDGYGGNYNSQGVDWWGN

For the compound `CCCCCCOc1cccc(Cc2cnc(N)nc2N)c1` [compound 2], the “fold changes relative to vehicle control” value in experiment [1] (protein DDX3X, HeLa) is reported as 1.05; in experiment [2] (protein ANXA2, HeLa) it was 1.87; in experiment [3] (setting [8]) it was 2.09 fold; in experiment [4] (protein NIT2, HeLa), 1.12; in experiment [5] (captured protein PANK4, HeLa), 1.12; in experiment [6] (captured protein DDX20, HeLa) it was 1. Further, in experiment [7] (captured protein SLC7A11, HeLa), the “fold changes relative to vehicle control” value turned out to be 0.92.

With `NCCOCCOCC(=O)Nc1nc2ncc(CNc3ccc(C(=O)NC(CCC(=O)O)C(=O)O)cc3)nc2c(=O)[nH]1` (stereo not shown) [compound 6], the “fold changes relative to vehicle control” value in experiment [1] (HeLa, captured protein DDX3X) worked out at 0.9; in experiment [2] (HeLa, protein ANXA2) it was 1.32; in experiment [3] (protein YWHAG, HeLa) it was 1.26; in experiment [4] (HeLa, captured protein NIT2), 0.84; in experiment [5] (HeLa, captured protein PANK4), 0.96; in experiment [6] (HeLa, protein DDX20) it was 0.98. In addition, the “fold changes relative to vehicle control” value in experiment [7] (HeLa, captured protein SLC7A11) amounted to 0.93.

`CCCCCCOc1ccc(Cc2cnc(N)nc2N)cc1` [compound 1]: the “fold changes relative to vehicle control” value in experiment [1] (protein DDX3X, HeLa) came to 0.96; in experiment [2] (protein ANXA2, HeLa), 1.18; in experiment [3] (setting [8]), 1.45 fold; in experiment [4] (protein NIT2, HeLa), 0.99; in experiment [5] (captured protein PANK4, HeLa), 0.98; in experiment [6] (captured protein DDX20, HeLa), 0.89. For the same compound, in experiment [7] (captured protein SLC7A11, HeLa), the “fold changes relative to vehicle control” value turned out to be 0.98.

With `Nc1nc2c(c(=O)[nH]1)N(C=O)C(CNc1ccc(C(=O)N[C@@H](CCC(=O)O)C(=O)O)cc1)CN2` (stereo partly shown) [LEU, leucovorin], the “fold changes relative to vehicle control” value in experiment [1] (HeLa, captured protein DDX3X) is recorded as 0.94; in experiment [2] (HeLa, protein ANXA2), 1; in experiment [3] (protein YWHAG, HeLa), 1.02; in experiment [4] (HeLa, captured protein NIT2) it was 1.04; in experiment [5] (HeLa, captured protein PANK4), 0.97; in experiment [6] (HeLa, protein DDX20) it was 0.93. For the same compound, in experiment [7] (HeLa, captured protein SLC7A11), the “fold changes relative to vehicle control” value is recorded as 0.96.

Turning to `NCCCNc1ccc(C(=O)NC(CCC(=O)O)C(=O)O)cc1` (stereo not shown) [compound 7], the “fold changes relative to vehicle control” value in experiment [1] (HeLa, captured protein DDX3X) is reported as 0.93; in experiment [2] (HeLa, protein ANXA2) it was 0.97; in experiment [3] (protein YWHAG, HeLa), 0.91; in experiment [4] (HeLa, captured protein NIT2) it was 0.96; in experiment [5] (HeLa, captured protein PANK4) it was 1.04; in experiment [6] (HeLa, protein DDX20), 0.94. Also, the “fold changes relative to vehicle control” value in experiment [7] (HeLa, captured protein SLC7A11) stood at 0.95.

`Nc1nc2[nH]cc(CCc3ccc(C(=O)N[C@@H](CCC(=O)O)C(=O)O)cc3)c2c(=O)[nH]1` [PTX, pemetrexed]: the “fold changes relative to vehicle control” value in experiment [1] is reported as 0.86; in experiment [2] it was 1.1; in experiment [3], 1.09; in experiment [4], 0.89; in experiment [5] it was 0.93; in experiment [6], 0.97. For the same compound, in experiment [7], the “fold changes relative to vehicle control” value is recorded as 0.91.

As for `Nc1nc2cccc(-c3ccccc3)c2n1Cc1ccc(Cl)c(Cl)c1` [compound 3], the “fold changes relative to vehicle control” value amounted to 0.94 in experiment [1] (protein DDX3X, HeLa); 0.9 in experiment [2] (protein ANXA2, HeLa); 0.97 fold in experiment [3] (setting [8]); 0.84 in experiment [4] (protein NIT2, HeLa); 1.02 in experiment [5] (captured protein PANK4, HeLa); 0.92 in experiment [6] (captured protein DDX20, HeLa). In addition, in experiment [7] (captured protein SLC7A11, HeLa), the “fold changes relative to vehicle control” value is given as 0.99.
